In patent US5326882A, “Chemiluminescent 3-(substituted Adamant-2'-Ylidene) 1,2-dioxetanes” (Tropix, Inc., priority 1992, dated 1994):

How the values were obtained:
Format in all cases: biochemical
[1] = biological target: T1, alkaline phosphatase (calf intestine; Biozyme) (Bos taurus, UniProt P19111); assay: Total dephosphorylation, chemiluminescence decay (Example XIII); details: 30° C., carbonate/bicarbonate buffer, listed as OH-Adamant-2'-ylidene (A isomer)
T1 construct: purchased Biozyme; host or cells: calf intestine

[2] = biological target: T2, alkaline phosphatase (Bos taurus, UniProt P19111); assay: Chemiluminescent signal and signal:background with enhancer polymers (Example XVII)
Procedure: Four sets of three tubes each, each tube in each set containing 450 μl of a 0.4 mM aqueous solution of one of the four 1,2-dioxetanes being compared in 0.1M diethanolamine containing 1 mM magnesium chloride, 0.02% sodium azide and 0.1% of the enhancer polymer, pH 10.0 (substrate buffer) were prepared and the background signal from each tube measured using a Berthold LB 952T luminometer (Berthold Instruments; Wildbad, Federal Republic of Germany).
Next, 50 μl of an aqueous solution, 2.83×10^-12 M of alkaline phosphatase in 0.1M diethanolamine containing 1 mM magnesium chloride, 0.02% sodium azide, pH 10.0, (final enzyme concentration 2.83×10^-13 M) was added to each tube and the chemiluminescent signals were measured in the luminometer at 5 and 20 minutes. The intensity of the chemiluminescent signals and the signal: background ratios obtained for each of the four 1,2-dioxetanes in the presence of the enhancer polymers are shown in Table III below.
The enhancer polymers used, and the symbols for such polymers used in Table III, were the following: […]

[3] = biological target: T2, alkaline phosphatase; assay: Alkaline phosphatase detection limits, LabSystems Luminoskan (Example XXV)
Procedure: The detection means for alkaline phosphatase with different chemiluminescent 1,2-dioxetane substrates were determined as follows: Duplicates of serial dilutions (1 to 3) of alkaline phosphates were incubated at room temperature with 0.4 mM dioxetane in 0.1 M diethanolamine, 1 mM MgCl2, pH 10.0, containing 1 mg/ml of either of the polymeric enhancers Enhancer 1 or Enhancer 2, in […].
Following either a 5 or a 20 minute incubation with a substrate, the chemiluminescence intensity was measured as a 5 second integrated Relative Light Units (RLU) and plotted as in FIG. 10. […] The alkaline phosphatase concentrations at twice background were used as the detection limits in Table 5.
The luminometer used in this example was LabSystems Luminoskan microtiter plate reader.

[4] = biological target: T2, alkaline phosphatase; assay: Alkaline phosphatase detection limits, Wilj microtiter plate luminometer (Example XXVI); details: 23 MINUTE INCUBATION
[5] = biological target: T2, alkaline phosphatase; assay: Half-time to plateau at low alkaline phosphatase concentration (Example XLI); details: 0.4 mM dioxetane at pH 10.0; 31.5° C.; 2.53 × 10^-13 M alkaline phosphatase; listed as HO-AMPPD-A

T2 sequence (P19111 20-506 limits assumed): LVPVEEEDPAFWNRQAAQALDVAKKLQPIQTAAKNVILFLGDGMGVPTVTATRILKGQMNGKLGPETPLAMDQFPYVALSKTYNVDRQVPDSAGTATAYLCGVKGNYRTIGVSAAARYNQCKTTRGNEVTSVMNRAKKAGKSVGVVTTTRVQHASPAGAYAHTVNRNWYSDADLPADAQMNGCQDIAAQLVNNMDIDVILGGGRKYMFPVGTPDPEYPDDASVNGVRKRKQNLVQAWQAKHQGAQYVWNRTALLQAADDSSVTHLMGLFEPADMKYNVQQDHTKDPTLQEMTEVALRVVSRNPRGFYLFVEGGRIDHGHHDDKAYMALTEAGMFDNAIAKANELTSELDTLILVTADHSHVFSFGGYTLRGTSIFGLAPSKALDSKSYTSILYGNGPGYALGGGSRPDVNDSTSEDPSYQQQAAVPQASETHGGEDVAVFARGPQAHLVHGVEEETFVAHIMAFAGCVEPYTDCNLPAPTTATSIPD
T1 sequence (P19111 20-506 limits assumed): as above

COC1(c2cccc(OP(=O)(O)O)c2)OOC12C1CC3CC2CC(O)(C3)C1 (single isomer, unassigned) [A-OH-AMPPD, disodium 3-(4-methoxyspiro-[1,2-dioxetane-3,2'-(5'-hydroxy)tricyclo[3.3.1.1^3,7]decan]-4-yl)phenyl phosphate]
Total Decay Time [1]: 9 min | Decay Rate I ([1]; RLU's per minute): 1.3 RLU's per minute | S/N ([2]; polymer BAEDM, 5 min): 61.6 | SIGNAL ([2]; polymer BAEDM, 5 min): 5887.3 | S/N ([2]; polymer BAEDM, 20 min): 77.8 | SIGNAL ([2]; polymer BAEDM, 20 min): 7433.5 | S/N ([2]; polymer BAEDM, time 0): 1.0 | SIGNAL ([2]; polymer BAEDM, time 0 (background, before enzyme)): 95.6 | S/N ([2]; polymer BZ, 5 min): 27.0 | SIGNAL ([2]; polymer BZ, 5 min): 2156.9 | S/N ([2]; polymer BZ, 20 min): 31.7 | SIGNAL ([2]; polymer BZ, 20 min): 2536.7 | S/N ([2]; polymer BZ, time 0): 1.0 | SIGNAL ([2]; polymer BZ, time 0 (background, before enzyme)): 79.9 | S/N ([2]; polymer DAA TMQ, 5 min): 61.7 | SIGNAL ([2]; polymer DAA TMQ, 5 min): 5583.1 | S/N ([2]; polymer DAA TMQ, 20 min): 69.7 | SIGNAL ([2]; polymer DAA TMQ, 20 min): 6309.4 | S/N ([2]; polymer DAA TMQ, time 0): 1.0 | SIGNAL ([2]; polymer DAA TMQ, time 0 (background, before enzyme)): 90.5 | S/N ([2]; polymer DME(OH)B, 5 min): 46.1 | SIGNAL ([2]; polymer DME(OH)B, 5 min): 3931.9 | S/N ([2]; polymer DME(OH)B, 20 min): 66.2 | SIGNAL ([2]; polymer DME(OH)B, 20 min): 5300.5 | S/N ([2]; polymer DME(OH)B, time 0): 1.0 | SIGNAL ([2]; polymer DME(OH)B, time 0 (background, before enzyme)): 85.2 | S/N ([2]; polymer DMEB, 5 min): 77.1 | SIGNAL ([2]; polymer DMEB, 5 min): 6160.6 | S/N ([2]; polymer DMEB, 20 min): 98.1 | SIGNAL ([2]; polymer DMEB, 20 min): 7835.2 | S/N ([2]; polymer DMEB, time 0): 1.0 | SIGNAL ([2]; polymer DMEB, time 0 (background, before enzyme)): 79.9 | S/N ([2]; polymer DMQ TEQ, 5 min): 189.7 | SIGNAL ([2]; polymer DMQ TEQ, 5 min): 17235.6 | S/N ([2]; polymer DMQ TEQ, 20 min): 227.9 | SIGNAL ([2]; polymer DMQ TEQ, 20 min): 20702.2 | S/N ([2]; polymer DMQ TEQ, time 0): 1.0 | SIGNAL ([2]; polymer DMQ TEQ, time 0 (background, before enzyme)): 90.8 | S/N ([2]; polymer MPB, 5 min): 140.7 | SIGNAL ([2]; polymer MPB, 5 min): 13165.3 | S/N ([2]; polymer MPB, 20 min): 172.7 | SIGNAL ([2]; polymer MPB, 20 min): 16159.2 | S/N ([2]; polymer MPB, time 0): 1.0 | SIGNAL ([2]; polymer MPB, time 0 (background, before enzyme)): 93.6 | S/N ([2]; polymer NONE, 5 min): 32.9 | SIGNAL ([2]; polymer NONE, 5 min, enzyme 2.83×10^-13 M): 2863.6 | S/N ([2]; polymer NONE, 20 min): 36.3 | SIGNAL ([2]; polymer NONE, 20 min, enzyme 2.83×10^-13 M): 3160.8 | S/N ([2]; polymer NONE, time 0): 1.0 | SIGNAL ([2]; polymer NONE, time 0 (background, before enzyme)): 87.0 | S/N ([2]; polymer S/TMQ(1:2), 5 min): 112.5 | SIGNAL ([2]; polymer S/TMQ(1:2), 5 min): 10193.8 | S/N ([2]; polymer S/TMQ(1:2), 20 min): 158.6 | SIGNAL ([2]; polymer S/TMQ(1:2), 20 min): 11365.1 | S/N ([2]; polymer S/TMQ(1:2), time 0): 1.0 | SIGNAL ([2]; polymer S/TMQ(1:2), time 0 (background, before enzyme)): 90.6 | S/N ([2]; polymer S/TMQ(1:4), 5 min): 114.5 | SIGNAL ([2]; polymer S/TMQ(1:4), 5 min): 9294.6 | S/N ([2]; polymer S/TMQ(1:4), 20 min): 148.1 | SIGNAL ([2]; polymer S/TMQ(1:4), 20 min): 1201.7 | S/N ([2]; polymer S/TMQ(1:4), time 0): 1.0 | SIGNAL ([2]; polymer S/TMQ(1:4), time 0 (background, before enzyme)): 81.2 | SIGNAL ([2]; polymer SAPPHIRE (BDMQ), time 0 (background, before enzyme)): 86.1 | S/N ([2]; polymer SAPPHIRE, 5 min): 244.5 | SIGNAL ([2]; polymer SAPPHIRE, 5 min): 21051.3 | S/N ([2]; polymer SAPPHIRE, 20 min): 292.3 | SIGNAL ([2]; polymer SAPPHIRE, 20 min): 25330.3 | S/N ([2]; polymer SAPPHIRE, time 0): 1.0 | S/N ([2]; polymer TBQ, 5 min): 366.0 | SIGNAL ([2]; polymer TBQ, 5 min): 37244.5 | S/N ([2]; polymer TBQ, 20 min): 438.0 | SIGNAL ([2]; polymer TBQ, 20 min): 44569.8 | S/N ([2]; polymer TBQ, time 0): 1.0 | SIGNAL ([2]; polymer TBQ, time 0 (background, before enzyme)): 101.8 | S/N ([2]; polymer TEQ, 5 min): 45.24 | SIGNAL ([2]; polymer TEQ, 5 min): 15779.8 | S/N ([2]; polymer TEQ, 20 min): 54.7 | SIGNAL ([2]; polymer TEQ, 20 min): 1908.9 | S/N ([2]; polymer TEQ, time 0): 1.0 | SIGNAL ([2]; polymer TEQ, time 0 (background, before enzyme)): 348.8 | S/N ([2]; polymer TMQ, 5 min): 113.6 | SIGNAL ([2]; polymer TMQ, 5 min): 8853.4 | S/N ([2]; polymer TMQ, 20 min): 149.6 | SIGNAL ([2]; polymer TMQ, 20 min): 11658.3 | S/N ([2]; polymer TMQ, time 0): 1.0 | SIGNAL ([2]; polymer TMQ, time 0 (background, before enzyme)): 77.9 | Alkaline phosphatase detection limit (at 2× background) ([3]; SAPPHIRE II, 5 MINUTE INCUBATION): 0.0014 pM | Alkaline phosphatase detection limit (at 2× background) ([3]; SAPPHIRE II, 20 MINUTE INCUBATION): 0.00031 pM | Alkaline phosphatase detection limit (at 2× background) ([3]; SAPPHIRE, 5 MINUTE INCUBATION): 0.0031 pM | Alkaline phosphatase detection limit (at 2× background) ([3]; SAPPHIRE, 20 MINUTE INCUBATION): 0.0011 pM | Alkaline phosphatase detection limit (at 2× background) ([4]; SAPPHIRE II): 0.0014 pM | Alkaline phosphatase detection limit (at 2× background) ([4]; SAPPHIRE): 0.0015 pM | HALF-TIME TO PLATEAU (min.) AL LOW ALK PHOS CONCENTRATION [5]: 0.93 min
